Laboratory results taken from patent US20100168072A1, “Drug Combinations for the Treatment of Duchenne Muscular Dystrophy” (BIOMARIN IGA LIMITED, priority 2007, published 2010).

Test system: Utrophin A promoter linked to a luciferase reporter gene (H2K/mdx/Utro A reporter cell line)
Experiment: Luciferase reporter assay (murine H2K cells)
Type: cell-based
Settings: Mus musculus; final concentration of 10 μM; incubated for a further 48 hrs
Description: The cell line used for the screen is an immortalized mdx mouse H2K cell line that has been stably transfected with a plasmid containing ≈5 kb fragment of the Utrophin A promoter including the first untranslated […] linked to a luciferase reporter gene.
Under conditions of low temperature and interferon containing media, the cells remain as myoblasts. These are plated into 96 well plates and cultured in the presence of compound for three days. The level of luciferase is then determined by cell lysis and reading of the light output from the expressed luciferase gene utilising a plate luminometer.
The H2K/mdx/Utro A reporter cell line was passaged twice a week until ≦30% confluent. The cells were grown at 33° C. in the presence of 10% CO2
To remove the myoblasts for platting, they were incubated with Trypsin/EDTA until the monolayer started to detach.
• DMEM Gibco 41966 • 20% FCS • 1% Pen/Strep • 1% glutamine • 10 mls Chick embryo extract • Interferon(1276 905 Roche) Add fresh 10 μl/50 mls medium
The H2K/mdx/Utro A reporter cell line cells were plated out into 96 well plates (Falcon 353296, white opaque) at a density of approximately 5000 cells/well in 190 μl normal growth medium. The plates were then incubated at 33° C. in the presence of 10% CO2 for 24 hrs.
Compounds were dosed by adding 10 μl of diluted compound to each well giving a final concentration of 10 μM. The plates were then incubated for a further 48 hrs
Cells were then lysed in situ following the manufacture's protocols (Promega Steady-Glo Luciferase Assay System (E2520). Then counted for 10 seconds using a plate luminometer (Victor1420).

`Cc1cc2nn(-c3ccc(Cl)cc3)nc2cc1NC(=O)c1ccccc1` [Example 3, N-(2-(4-chlorophenyl)-6-methyl-2H-benzo[d][1,2,3]triazol-5-yl)benzamide] was tested, and the activity at 10 µM was < 200%.

In the case of `Nc1ccc2nn(-c3ccc(Cl)cc3)nc2c1` [Example 38, 2-(4-chlorophenyl)-2H-benzo[d][1,2,3]triazol-5-amine], the activity at 10 µM was < 200%.

With `CCCCC(=O)Nc1cc2nn(-c3ccc(N(CC)CC)cc3)nc2cc1C` [Example 16, N-(2-(4-(diethylamino)phenyl)-6-methyl-2H-benzo[d][1,2,3]triazol-5-yl)pentanamide] the activity at 10 µM was < 200%.

For `CCN(CC)c1ccc(-n2nc3ccc(NC(=O)c4ccc(Cl)cc4)cc3n2)cc1` [Example 32, 4-chloro-N-(2-(4-(diethylamino)phenyl)-2H-benzo[d][1,2,3]triazol-5-yl)benzamide], the activity at 10 µM was < 200%.

For `CCN(CC)c1ccc(-n2nc3ccc(NC(=O)c4ccncc4)cc3n2)cc1` [Example 21, N-(2-(4-(diethylamino)phenyl)-2H-benzo[d][1,2,3]triazol-5-yl)isonicotinamide], the activity at 10 µM was < 200%.

With `Cc1cc2nn(-c3ccc(Cl)cc3)nc2cc1N` [Example 43, 2-(4-chlorophenyl)-6-methyl-2H-benzo[d][1,2,3]triazol-5-amine] the activity at 10 µM was > 401%.

In the case of `O=[N+]([O-])c1ccc2cn(-c3ccc(Cl)cc3)nc2c1` [Example 45, 2-(4-chlorophenyl)-6-nitro-2H-indazole], the activity at 10 µM was < 200%.

In the case of `CCCC(=O)Nc1cc2nn(-c3ccc(N(CC)CC)cc3)nc2cc1C` [Example 15, N-(2-(4-(diethylamino)phenyl)-6-methyl-2H-benzo[d][1,2,3]triazol-5-yl)butyramide], the activity at 10 µM was < 200%.

Work on `CCN(CC)c1ccc(-n2nc3cc(C)c(NC(=O)c4ccncc4)cc3n2)cc1` [Example 13, N-(2-(4-(diethylamino)phenyl)-6-methyl-2H-benzo[d][1,2,3]triazol-5-yl)isonicotinamide] yielded an activity at 10 µM of 301 to 400%.

`COc1ccc(C(=O)Nc2cc3nn(-c4ccc(Cl)cc4)nc3cc2C)cc1` [Example 4, N-(2-(4-chlorophenyl)-6-methyl-2H-benzo[d][1,2,3]triazol-5-yl)-4-methoxybenzamide] gave an activity at 10 µM of 201 to 300%.

`CCS(=O)(=O)c1ccc2nn(-c3ccc(Cl)c(Cl)c3)nc2c1` [Example 51, 2-(3′,4′-dichlorophenyl)-5-(ethylsulfonyl)-benzotriazole] showed an activity at 10 µM of 301 to 400%.

In the case of `CS(=O)(=O)c1ccc2nn(-c3ccc(Cl)cc3)[n+]([O-])c2c1` [Example 47, 2-(4-chlorophenyl)-6-(methylsulfonyl)-2H-benzo[d][1,2,3]triazole 1-oxide], the activity at 10 µM was < 200%.

`CS(=O)(=O)c1ccc2nn(-c3ccc(Cl)c(Cl)c3)nc2c1` [Example 50, 2-(3,4-dichlorophenyl)-5-(methylsulfonyl)-2H-benzo[d][1,2,3]triazole] showed an activity at 10 µM of 201 to 300%.

With `CC(=O)Nc1ccc2nn(-c3ccc(Cl)cc3)nc2c1` [Example 39, N-(2-(4-chlorophenyl)-2H-benzo[d][1,2,3]triazol-5-yl)acetamide] the activity at 10 µM was > 401%.

`CCCC(=O)Nc1ccc2nn(-c3ccc(Cl)cc3)nc2c1` [Example 36, N-(2-(4-chlorophenyl)-2H-benzo[d][1,2,3]triazol-5-yl)butyramide] showed an activity at 10 µM of 301 to 400%.

`CCN(CC)c1ccc(-n2nc3ccc(NC(=O)C(C)C)cc3n2)cc1` [Example 26, N-(2-(4-(diethylamino)phenyl)-2H-benzo[d][1,2,3]triazol-5-yl)isobutyramide] was tested, and the activity at 10 µM was < 200%.

Work on `Nc1ccc2nn(-c3ccc(N4CCCCC4)cc3)nc2c1` [Example 40, 2-(4-(piperidin-1-yl)phenyl)-2H-benzo[d][1,2,3]triazol-5-amine] yielded an activity at 10 µM of 201 to 300%.

In the case of `CCC(=O)Nc1ccc2nn(-c3ccc(Cl)cc3)nc2c1` [Example 35, N-(2-(4-chlorophenyl)-2H-benzo[d][1,2,3]triazol-5-yl)propionamide], the activity at 10 µM was > 401%.
